Experimental data as given in the NIST ThermoML archive (doi:10.1021/je901030f).

Conditions: 101.33 kPa, Crystal, Buoyancy - hydrostatic balance with magnetic suspension - one sinker

[Cl-].[Rb+] [rubidium chloride]
Conditions	mass density [kg/m3]
903 K	2578.4
913 K	2573.5
923 K	2567.8
933 K	2562.2
943 K	2556.1
953 K	2551.7
963 K	2548.6
973 K	2547.6
983 K	2550.3
993 K	2556.4

[Cl-].[Na+] [sodium chloride]
Conditions	mass density [kg/m3]
1013 K	1931.2
1023 K	1905.8
1033 K	1890.4
1043 K	1888.3
1053 K	1882
1063 K	1884.9
1073 K	1889.8

[Cl-].[Cs+] [cesium chloride]
Conditions	mass density [kg/m3]
843 K	3074.5
853 K	3067.6
863 K	3060.2
873 K	3052.4
883 K	3046
893 K	3040.9
903 K	3039.5
913 K	3041.8

[Cl-].[K+] [potassium chloride]
Conditions	mass density [kg/m3]
973 K	1805.8
983 K	1803.6
993 K	1800.6
1003 K	1797.1
1013 K	1794.5
1023 K	1793.6
1033 K	1793.6
1043 K	1796.6
